Measured values as given in US7939509B2, “Partial and full agonists of A1 adenosine receptors” (Gilead Sciences, Inc., priority 2002, dated 2011).

System: awake rats
Test: Serum triglyceride (TG) levels in overnight-fasted awake rats
Format: in vivo, rat
Method: All experimental procedures were performed under a protocol approved by the Institutional Animal Care and Use Committee of CV Therapeutics, Inc., and in accordance with the recommendations set forth in the Guide for the Care and Use of Laboratory Animals published by the National Research Council. Male Sprague-Dawley rats (225-250 gm) with either one or two indwelling catheters (carotid and jugular) were purchased from Charles River Laboratories (Wilmington, Mass.). Animals were housed 1 per cage in a room maintained on a 12 h light/dark cycle (light on 06.00-18.00 h) under constant temperature (22-25° C.) and with ad libitum access to food and water.
The anti-lipolytic effects of Compound A were studied in awake rats. Animals were fasted overnight before experimental use. On the day of the experiment, animals were put in metabolic cages and left undisturbed to acclimate to the environment for 1-2 hrs. An infusion set (21 G×¾″, 0.8×19 mm U.T.W., 3½″, 9 cm tubing, volume 0.15 ml) was connected to the arterial catheter for blood sampling. A 1% sodium citrate saline solution was used to flush the lines. A pre-treatment blood sample was obtained from each animal to determine baseline values for FFA and TG. Compound A was given via oral gavage, sc injection, iv injection, or iv infusion, as described, for each different series of experiments. Blood samples were collected into serum separator tubes (Becton Dickinson, Franklin Lakes, N.J.) at pre-determined times, Blood was allowed to clot, and then centrifuged at 8000 rpm for 4 min at 4° C. The serum was stored at −80° C. and was thawed at 4° C. for determinations of FFA and TG contents.
Compound A was synthesized by the Department of Medicinal and Bio-Organic chemistry of CV Therapeutics, Inc. Sodium citrate and Triton WR1339 were purchased from Sigma (St. Louis, Mo.). Nicotinic acid and PEG 400 were purchased from VWR (by EMD Chemicals). Triton WR 1339 was diluted in warm saline (˜37° C.) with frequent vortexing. Nicotinic acid was dissolved in saline. Compound A was dissolved in PEG 400, and then diluted with distilled water to make a 20% PEG drug solution. Serum FFA and TGs were measured using commercial kits from Wako Chemicals, Richmond, Va. Glucose and Insulin were measured using commercial kits from Wako Chemicals USA (Richmond, Va.).
All data are reported as mean±SEM. Statistical analysis of data from experiments with 2 treatment groups was performed using the unpaired Student's t-test. Two way analysis of variance followed by Bonferroni's test was used for multiple comparisons. Differences among treatment groups were considered to be significant when the probability of their occurrence by chance alone was <0.05.

O[C@@H]1[C@H](O)[C@@H](CSc2ccccc2F)O[C@H]1n1cnc2c(N[C@@H]3CCC[C@H]3O)ncnc21 [Compound A, 2-{6-[((1R,2R)-2-hydroxycyclopentyl)amino]purin-9-yl}(4S,5S,2R,3R)-5-[(2-fluorophenylthio)methyl]oxolane-3,4-diol]
decrease in TG levels (2.5 mg/kg oral gavage): 36%
serum TG level (2.5 mg/kg oral gavage, from 54±4 mg/dl, p<0.05): 35 ± 4 mg/dL
reduction in TG levels compared to vehicle-treated rats (5 mg/kg oral gavage): 41%
serum TG level (5 mg/kg oral gavage, p<0.01): 32 ± 4 mg/dL
reduction in TG levels compared to vehicle-treated rats (10 mg/kg oral gavage): 58%
serum TG level (10 mg/kg oral gavage, p<0.01): 23 ± 1 mg/dL
reduction of serum triglyceride levels, dose dependence (2.5, 5, 10 mg/kg oral gavage): dose-dependent manner
